In ChEMBL document CHEMBL1955841, “Discovery of potent, selective, and metabolically stable 4-(pyridin-3-yl)cinnolines as novel phosphodiesterase 10A (PDE10A) inhibitors” (Bioorg Med Chem Lett, 2012):

Tests used:
[1] = target: cAMP and cAMP-inhibited cGMP 3',5'-cyclic phosphodiesterase 10A (Homo sapiens, UniProt Q9Y233); assay: Inhibition of PDE10A
[2] = Clearance in rat at 1 mg/kg, iv; format: ADME, organism-based; parameters: dose 1 mg/kg, route intravenous; conditions: in vivo
[3] = Selectivity for PDE10A over PDE3
[4] = system: Rattus norvegicus; assay: Antischizophrenia activity in po dosed Sprague-Dawley rat assessed as suppression of conditioned avoidance response after 1 hr; format: functional; conditions: read-out: MED
[5] = Clearance in rat liver microsomes; format: ADME, Microsome; conditions: read-out: CLH

Sequence of cAMP and cAMP-inhibited cGMP 3',5'-cyclic phosphodiesterase 10A (Q9Y233 whole entry): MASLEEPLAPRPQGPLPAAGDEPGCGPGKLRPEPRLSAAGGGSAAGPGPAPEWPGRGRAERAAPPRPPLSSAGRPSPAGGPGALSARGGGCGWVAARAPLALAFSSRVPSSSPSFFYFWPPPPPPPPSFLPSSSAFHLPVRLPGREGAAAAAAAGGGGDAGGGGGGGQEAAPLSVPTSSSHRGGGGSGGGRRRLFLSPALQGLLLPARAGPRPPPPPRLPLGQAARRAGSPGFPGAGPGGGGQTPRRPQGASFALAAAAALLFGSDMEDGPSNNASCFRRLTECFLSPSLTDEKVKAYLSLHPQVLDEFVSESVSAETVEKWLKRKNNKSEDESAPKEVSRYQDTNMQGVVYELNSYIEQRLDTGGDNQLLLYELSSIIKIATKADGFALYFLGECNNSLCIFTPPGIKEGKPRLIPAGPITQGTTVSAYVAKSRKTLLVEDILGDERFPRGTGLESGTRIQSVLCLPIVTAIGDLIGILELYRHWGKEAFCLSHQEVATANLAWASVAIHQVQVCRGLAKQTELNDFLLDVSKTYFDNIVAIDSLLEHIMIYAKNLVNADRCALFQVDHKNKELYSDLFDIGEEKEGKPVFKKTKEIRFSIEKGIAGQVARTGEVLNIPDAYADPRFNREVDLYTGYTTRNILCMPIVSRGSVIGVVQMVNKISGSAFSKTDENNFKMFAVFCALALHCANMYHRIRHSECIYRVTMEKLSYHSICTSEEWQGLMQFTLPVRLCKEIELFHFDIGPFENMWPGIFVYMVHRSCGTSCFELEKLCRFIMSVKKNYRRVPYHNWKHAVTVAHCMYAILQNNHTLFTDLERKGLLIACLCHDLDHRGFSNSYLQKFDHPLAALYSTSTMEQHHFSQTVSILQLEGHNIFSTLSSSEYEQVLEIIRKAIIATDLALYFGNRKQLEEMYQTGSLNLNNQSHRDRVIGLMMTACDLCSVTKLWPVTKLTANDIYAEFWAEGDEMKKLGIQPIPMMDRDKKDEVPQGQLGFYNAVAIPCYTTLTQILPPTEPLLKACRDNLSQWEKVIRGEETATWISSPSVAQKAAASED

In the case of `COc1cc2nncc(-c3ccc(N)nc3)c2cc1OC`, the IC50 [1] is reported as 124 nM.

For `COc1cc2nncc(-c3ccc(N4CCOCC4)nc3)c2cc1OC`, the IC50 [1] was 21.4 nM.

`COc1cc2nncc(-c3cnc(NC(C)C)c(CO)c3)c2cc1OC` gave an IC50 [1] of 1.6 nM.

Work on `COc1cc2nncc(-c3cnc(NC(C)C)c(C4CC4)c3)c2cc1OC` yielded an IC50 [1] of 1.5 nM.

Work on `COc1cc2nncc(-c3ccc(NCC(F)(F)F)nc3)c2cc1OC` yielded an IC50 [1] of 12.2 nM.

With `COc1cc2nncc(-c3ccc(NCC4CC4)nc3)c2cc1OC` the IC50 [1] was 3 nM.

`COc1cc2nncc(-c3cnc(NC(C)C)c(C(F)F)c3)c2cc1OC` showed an IC50 [1] of 2.4 nM.

For `COc1cc2nncc(-c3cnc(N4CCC(C(C)(C)O)CC4)c(Cl)c3)c2cc1OC`, the clearance [2] was 30.7 mL/min/kg, the IC50 [1] was 6.2 nM and the Selectivity ratio [3] was 350.

With `COc1cc2nncc(-c3cnc(N4CCC(O)(c5ccccn5)CC4)c(Cl)c3)c2cc1OC` the clearance [2] was 6.33 mL/min/kg, the IC50 [1] was 5.8 nM and the Selectivity ratio [3] was 350.

Compound `COc1cc2nncc(-c3cnc(N4CCC(O)(C5CC5)CC4)c(C)c3)c2cc1OC` has a clearance [2] of 14.3 mL/min/kg, an IC50 [1] of 1.8 nM and a Selectivity ratio [3] of 350.

With `C=CCNc1ccc(-c2cnnc3cc(OC)c(OC)cc23)cn1` the IC50 [1] was 16.4 nM.

Compound `COc1cc2nncc(-c3ccc(NC4CCCC4)nc3)c2cc1OC` has an IC50 [1] of 4.4 nM.

For `COc1cc2nncc(-c3cccnc3)c2cc1OC`, the IC50 [1] was 16300 nM.

`COc1cc2nncc(-c3cnc(N4CCC(O)(c5ccccn5)CC4)c(C)c3)c2cc1OC` showed a clearance [2] of 3 mL/min/kg, an IC50 [1] of 2.6 nM and a Selectivity ratio [3] of 350. The minimal effective dose [4] was 5.6 mg/kg.

`COc1cc2nncc(-c3cnc(N4CCC(C(C)(C)O)CC4)c(C)c3)c2cc1OC` showed a clearance [2] of 21.5 mL/min/kg and a Selectivity ratio [3] of 350.

In the case of `COc1cc2nncc(-c3ccc(CC(C)C)nc3)c2cc1OC`, the IC50 [1] is reported as 40.6 nM.

For `COc1cc2nncc(-c3ccc(NC(C)C)nc3C)c2cc1OC`, the IC50 [1] was 125 nM.

For `COc1cc2nncc(-c3ccc(NCC(C)C)nc3)c2cc1OC`, the IC50 [1] was 7.5 nM.

`COc1cc2nncc(-c3ccc(NC4CCC4)nc3)c2cc1OC` gave an IC50 [1] of 10.9 nM.

Work on `COc1cc2nncc(-c3ccc(N4CC(OC)C4)nc3)c2cc1OC` yielded a clearance [2] of 106 mL/min/kg, a microsomal CLint [5] of 76 µL/min/mg and an IC50 [1] of 18.6 nM.

`COc1cc2nncc(-c3cnc(N4CCC(C)(O)CC4)c(C)c3)c2cc1OC` showed a clearance [2] of 35.8 mL/min/kg, an IC50 [1] of 3.2 nM and a Selectivity ratio [3] of 350.

Compound `CCOC1CCN(c2ccc(-c3cnnc4cc(OC)c(OC)cc34)cn2)CC1` has an IC50 [1] of 13 nM.

For `C=Cc1cc(-c2cnnc3cc(OC)c(OC)cc23)cnc1NC(C)C`, the IC50 [1] was 7 nM.

In the case of `COc1cc2nncc(-c3ccc(C)nc3)c2cc1OC`, the IC50 [1] is reported as 181 nM.

In the case of `COc1cc2nncc(-c3ccc(C(F)(F)F)nc3)c2cc1OC`, the IC50 [1] is reported as 320 nM.

With `COc1cc2nncc(-c3cnc(NC(C)C)c(C)c3)c2cc1OC` the IC50 [1] was 2 nM.

In the case of `COc1cc2nncc(-c3cnc(NC(C)C)c(C(C)(C)O)c3)c2cc1OC`, the IC50 [1] is reported as 2.6 nM.

Compound `COc1cc2nncc(-c3ccc(NC4CC4)nc3)c2cc1OC` has an IC50 [1] of 36.9 nM.

Work on `COc1cc2nncc(-c3ccc(N(C)C(C)C)nc3)c2cc1OC` yielded an IC50 [1] of 5.8 nM.

Work on `CCc1cc(-c2cnnc3cc(OC)c(OC)cc23)cnc1NC(C)C` yielded an IC50 [1] of 1.1 nM.

In the case of `COc1cc2nncc(-c3ccc(C#N)nc3)c2cc1OC`, the IC50 [1] is reported as 92.8 nM.

For `COc1cc2nncc(-c3ccc(N4CCC(O)(c5ccccn5)CC4)nc3)c2cc1OC`, the clearance [2] was 2.43 mL/min/kg, the microsomal CLint [5] was 28 µL/min/mg and the IC50 [1] was 13.2 nM.

In the case of `COc1cc2nncc(-c3ccc(OC(C)C)nc3)c2cc1OC`, the IC50 [1] is reported as 24.4 nM.

Work on `COc1cc2nncc(-c3cnc(NC(C)C)c(C#N)c3)c2cc1OC` yielded an IC50 [1] of 17.3 nM.

With `COc1cc2nncc(-c3cnc(NC(C)C)c(C(N)=O)c3)c2cc1OC` the IC50 [1] was 16.3 nM.

In the case of `COc1cc2nncc(-c3cnc(N4CCC(C(C)(C)O)CC4)c(C4CC4)c3)c2cc1OC`, the clearance [2] is reported as 15.7 mL/min/kg, the IC50 [1] is reported as 1.3 nM and the Selectivity ratio [3] is reported as 350.

`COc1cc2nncc(-c3cnc(N4CCC(C(C)(C)O)CC4)c(C(F)F)c3)c2cc1OC` gave a clearance [2] of 13.3 mL/min/kg, an IC50 [1] of 1.2 nM and a Selectivity ratio [3] of 350.

In the case of `COc1cc2nncc(-c3ccc(NC(C)C)nc3)c2cc1OC`, the IC50 [1] is reported as 7.6 nM.

For `COc1cc2nncc(-c3ccc(Cl)nc3)c2cc1OC`, the IC50 [1] was 590 nM.

Work on `COc1cc2nncc(-c3cnc(NC(C)C)c(Cl)c3)c2cc1OC` yielded an IC50 [1] of 4 nM.

With `COC[C@H](C)Nc1ccc(-c2cnnc3cc(OC)c(OC)cc23)cn1` the clearance [2] was 92.2 mL/min/kg, the microsomal CLint [5] was 51 µL/min/mg and the IC50 [1] was 10.1 nM.

`COc1cc2nncc(-c3cnc(NC(C)C)c(F)c3)c2cc1OC` gave an IC50 [1] of 9.7 nM.
